Converted amounts (≈) assume the structure as drawn.
Experiments:
[1] = system: K. pneumoniae ST512/KPC-31 (KPC-3 D179Y) parental clinical isolate; test: MIC, broth microdilution; type: cell-based; conditions: Klebsiella pneumoniae
[2] = system: ST512/KPC-31 mutant IMI 1.1; test: MIC, broth microdilution; type: cell-based; conditions: Klebsiella pneumoniae
[3] = system: ST512/KPC-31 mutant IMI 1.2; test: MIC, broth microdilution; type: cell-based; conditions: Klebsiella pneumoniae
[4] = system: ST512/KPC-31 mutant IMI 2.1; test: MIC, broth microdilution; type: cell-based; conditions: Klebsiella pneumoniae
[5] = system: ST512/KPC-31 mutant IMI 2.2; test: MIC, broth microdilution; type: cell-based; conditions: Klebsiella pneumoniae
[6] = system: ST512/KPC-31 mutant IMI 3.1; test: MIC, broth microdilution; type: cell-based; conditions: Klebsiella pneumoniae
[7] = system: ST512/KPC-31 mutant IMI 3.2; test: MIC, broth microdilution; type: cell-based; conditions: Klebsiella pneumoniae
[8] = system: K. pneumoniae ST258/KPC-35 (KPC-2 L169P) parental clinical isolate; test: MIC, broth microdilution; type: cell-based; conditions: Klebsiella pneumoniae
[9] = system: ST258/KPC-35 mutant IMI 1.1; test: MIC, broth microdilution; type: cell-based; conditions: Klebsiella pneumoniae
[10] = system: ST258/KPC-35 mutant IMI 1.2; test: MIC, broth microdilution; type: cell-based; conditions: Klebsiella pneumoniae
[11] = system: ST258/KPC-35 mutant IMI 2.1; test: MIC, broth microdilution; type: cell-based; conditions: Klebsiella pneumoniae
[12] = system: ST258/KPC-35 mutant IMI 2.2; test: MIC, broth microdilution; type: cell-based; conditions: Klebsiella pneumoniae
[13] = system: ST258/KPC-35 mutant IMI 3.1; test: MIC, broth microdilution; type: cell-based; conditions: Klebsiella pneumoniae
[14] = system: ST258/KPC-35 mutant IMI 3.2; test: MIC, broth microdilution; type: cell-based; conditions: Klebsiella pneumoniae
[15] = system: E. coli HB4 KPC-2 L169A; test: MIC of recombinant strains; type: cell-based; conditions: Escherichia coli, HB4KPC2L169A; E. coli HB4 expressing KPC-2 L169A in pUCP24
Method: (§1) 14.0 (www.eucast.org/clinical_breakpoints).
(§2) Recombinant strains were selected in 10 mg/L of gentamicin-LB agar plates. The β-lactam MICs were determined for the transformants according to the above-described methodology.

[16] = system: E. coli HB4 KPC-2 L169T; test: MIC of recombinant strains; type: cell-based; conditions: Escherichia coli, HB4KPC2L169T; E. coli HB4 expressing KPC-2 L169T in pUCP24
Method: as §1, §2

[17] = system: E. coli HB4 KPC-2; test: MIC of recombinant strains; type: cell-based; conditions: Escherichia coli, HB4KPC2; E. coli HB4 expressing KPC-2 in pUCP24
Method: as §1, §2

[18] = system: E. coli HB4 KPC-3 D179N; test: MIC of recombinant strains; type: cell-based; conditions: Escherichia coli, HB4KPC3D179N; E. coli HB4 expressing KPC-3 D179N in pUCP24
Method: as §1, §2

[19] = system: E. coli HB4 KPC-31 (KPC-3 D179Y); test: MIC of recombinant strains; type: cell-based; conditions: Escherichia coli; E. coli HB4 expressing KPC-31 (KPC-3 D179Y) in pUCP24
Method: as §1, §2

[20] = system: E. coli HB4 KPC-35 (KPC-2 L169P); test: MIC of recombinant strains; type: cell-based; conditions: Escherichia coli; E. coli HB4 expressing KPC-35 (KPC-2 L169P) in pUCP24
Method: as §1, §2

[21] = system: E. coli HB4 KPC-3; test: MIC of recombinant strains; type: cell-based; conditions: Escherichia coli, HB4KPC3; E. coli HB4 expressing KPC-3 in pUCP24
Method: as §1, §2

[22] = system: E. coli HB4; test: MIC of recombinant strains; type: cell-based; conditions: Escherichia coli; E. coli HB4 (OmpC- and OmpF-deficient), no KPC
Method: as §1, §2

[23] = system: K. pneumoniae ST258/KPC-35 (KPC-2 L169P); test: Single-step mutant frequencies and mutant prevention concentrations; type: cell-based, Klebsiella pneumoniae; conditions: for Imipenem mutant frequency: MH agar, 48 h
Method: (§3) The plates were incubated for 48 h at 37°C before the frequency of resistance emergence was calculated as the ratio of the number of colony forming units (CFUs) grown on the antibiotic-containing plate and the number of CFUs on antibiotic-free plates. Mutant prevention concentrations were defined as the lowest concentration of antibiotic combination for which there were zero colonies on all agar plates ([23]). All determinations were conducted in triplicate.

[24] = system: K. pneumoniae ST512/KPC-31 (KPC-3 D179Y); test: as above; type: cell-based, Klebsiella pneumoniae; conditions: for Imipenem mutant frequency: MH agar, 48 h
Method: as §3

[25] = system: K. pneumoniae ST512/KPC-31; test: In vitro resistance dynamics (stepwise, 7 days); type: cell-based, Klebsiella pneumoniae; conditions: stepwise resistance development, MH broth, up to 64× MIC
[26] = system: K. pneumoniae ST258/KPC-35; test: In vitro resistance dynamics (stepwise, 7 days); type: cell-based, Klebsiella pneumoniae; conditions: stepwise resistance development, MH broth, up to 64× MIC
[27] = target: T1, KPC-2 (Klebsiella pneumoniae, UniProt Q9F663); test: Specific β-lactamase activity against imipenem, crude extract; type: biochemical; conditions: hydrolysis of imipenem by KPC-2 crude extract, 297 nm
T1 construct: made in house; host or cells: E. coli HB4 (porin-deficient), plasmid pUCP24
Method: (§4) Cultures were centrifuged at 3,500 × g, 15 min at 4°C, resuspended in 10 mL of phosphate-buffered saline (PBS; pH ~7.4) and sonicated with Ultraschall Prozessor UP 200S Hielscher (Teltow, Germany).

[28] = target: T2, KPC-2 L169A (Klebsiella pneumoniae, UniProt Q9F663, L168A); test: as above; type: biochemical; conditions: hydrolysis of imipenem by KPC-2 L169A crude extract, 297 nm
T2 construct: made in house; host or cells: E. coli HB4 (porin-deficient), plasmid pUCP24
Method: as §4

[29] = target: T3, KPC-2 L169T (Klebsiella pneumoniae, UniProt Q9F663, L168T); test: as above; type: biochemical; conditions: hydrolysis of imipenem by KPC-2 L169T crude extract, 297 nm
T3 construct: made in house; host or cells: E. coli HB4 (porin-deficient), plasmid pUCP24
Method: as §4

[30] = target: T4, KPC-3 (Klebsiella pneumoniae, UniProt Q9F663, H272Y); test: as above; type: biochemical; conditions: hydrolysis of imipenem by KPC-3 crude extract, 297 nm
T4 construct: made in house; host or cells: E. coli HB4 (porin-deficient), plasmid pUCP24
Method: as §4

[31] = target: T5, KPC-3 D179N (Klebsiella pneumoniae, UniProt Q9F663, D178N/H272Y); test: as above; type: biochemical; conditions: hydrolysis of imipenem by KPC-3 D179N crude extract, 297 nm
T5 construct: made in house; host or cells: E. coli HB4 (porin-deficient), plasmid pUCP24
Method: as §4

[32] = fold higher than the MIC of the parental strain
[33] = relebactam fixed at 4 mg/L in the combination

Compound: C[C@@H](O)[C@H]1C(=O)N2C(C(=O)O)=C(SCCN=CN)C[C@H]12 [IMI, imipenem]
- MIC [1]: 0.125 µg/mL (≈ 0.418 µM)
- MIC [2]: > 256 µg/mL
- MIC [3]: > 256 µg/mL
- MIC [4]: > 256 µg/mL
- MIC [5]: > 256 µg/mL
- MIC [6]: 32 µg/mL (≈ 107 µM)
- MIC [7]: 32 µg/mL (≈ 107 µM)
- MIC [8]: 0.5 µg/mL (≈ 1.67 µM)
- MIC [9]: 256 µg/mL (≈ 855 µM)
- MIC [10]: 256 µg/mL (≈ 855 µM)
- MIC [11]: > 256 µg/mL
- MIC [12]: > 256 µg/mL
- MIC [13]: 128 µg/mL (≈ 428 µM)
- MIC [14]: 128 µg/mL (≈ 428 µM)
- MIC [15]: 8 µg/mL
- MIC [16]: 16 µg/mL
- MIC [17]: 32 µg/mL
- MIC [18]: 0.25 µg/mL
- MIC [19]: 0.25 µg/mL
- MIC [20]: 0.25 µg/mL
- MIC [21]: 16 µg/mL
- MIC [22]: 0.125 µg/mL
- Mutant prevention concentration relative to baseline MIC [23, 32]: 16 fold
- Imipenem mutant frequency ([23]; imipenem concentration 2 mg/L): 8.22×10^−9
- Imipenem mutant frequency ([23]; imipenem concentration 4 mg/L): 5.08×10^−10
- Imipenem mutant frequency ([23]; imipenem concentration 8 mg/L): ≤ 1.69×10^−11
- Mutant prevention concentration [23, 33]: 8 mg/L
- Mutant prevention concentration relative to baseline MIC [24, 32]: 64 fold
- Imipenem mutant frequency ([24]; imipenem concentration 2 mg/L): 1.29×10^−8
- Imipenem mutant frequency ([24]; imipenem concentration 4 mg/L): 6.10×10^−10
- Imipenem mutant frequency ([24]; imipenem concentration 8 mg/L): ≤ 2.44×10^−11
- Mutant prevention concentration [24, 33]: 8 mg/L
- Day on which 64× MIC values were reached [25]: 5 days
- Day on which 64× MIC values were reached [26]: 3 days
- Specific activity [27]: 0.55 µmol/min/mg
- Specific activity [28]: 0.1 µmol/min/mg
- Specific activity [29]: 0.13 µmol/min/mg
- Specific activity [30]: 2.5 µmol/min/mg
- Specific activity [31]: 0.02 µmol/min/mg

From publication PMC11619344 (Antimicrobial Agents and Chemotherapy, 2024)
